# Source: US8338565B2, “Macrocyclic compounds for inhibition of tumor necrosis factor alpha” (Ensemble Therapeutics Corporation, priority 2008, dated 2012)
# Numbered stars: 1 amine (or outer) side, 2 acyl side, 3 side chain; on linkers, the order of the positions; unused ones are H or OH. Bridge positions count the residues as written; N and C are the ends. Square brackets hold non-standard residues; d marks the D form. Peptide text beside a SMILES is read from it. * marks the point of attachment. Bip = N[C@@H](Cc1ccc(-c2ccccc2)cc1)C(=O)O; Phe(4-NH2) = Nc1ccc(C[C@H](N)C(=O)O)cc1; d(hPhe) = N[C@H](CCc1ccccc1)C(=O)O; d2Thi = N[C@H](Cc1cccs1)C(=O)O; Suc = O=C(CCC(=O)[*:2])[*:1]; NHCH2SO3H = O=S(=O)(O)CN*; Boc = CC(C)(C)OC(=O)*; GABA = NCCCC(=O)O
# Target: T1, TNFα / TNFα receptor (TNFα R1/Fc) (Homo sapiens, UniProt P01375)
# T1 construct: purchased R&D Systems
# T1 sequence (P01375 77-233 limits assumed, species assumed): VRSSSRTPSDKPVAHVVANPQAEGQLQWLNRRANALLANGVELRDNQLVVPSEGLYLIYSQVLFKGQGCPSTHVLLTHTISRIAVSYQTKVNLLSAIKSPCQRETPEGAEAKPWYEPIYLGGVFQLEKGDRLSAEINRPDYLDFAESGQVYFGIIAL
# Assay: Inhibition of binding of TNFα to the TNFα receptor (plate ELISA competition)
# Conditions: Activity (IC50, inhibition of TNFα binding to TNFα R1/Fc), Table 2
# Procedure, shortened: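 Compound dilutions were preincubated 30 min at RT with 8.33 nM TNFα R1/Fc in PBST with 2% DMSO, then added to wells coated with 15 nM TNFα for 30 min. Bound receptor was detected with HRP anti-human Fc and TMB, read as A450.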
row,SMILES,IC50
1,O=C1COc2ccc(cc2)C[C@@H](C(=O)N[C@H](Cc2ccccc2)C(=O)O)NC(=O)[C@H](CCc2ccccc2)NC(=O)[C@@H](Cc2ccc(-c3ccccc3)cc2)NC(=O)[C@H](Cc2ccncc2)N1 [Compound 553],< 10 µM

# Same assay, conditions: Table 2; read-out: Activity (IC50, inhibition of TNFα binding to TNFα R1/Fc)
row,SMILES,IC50
1,O=C1COc2ccc(cc2)C[C@@H](C(=O)O)NC(=O)[C@H](CCc2ccccc2)NC(=O)[C@@H](Cc2ccc(-c3ccccc3)cc2)NC(=O)[C@H](Cc2ccc([N+](=O)[O-])cc2)N1 [Compound 512],< 10 µM
2,O=C1COc2ccc(cc2)C[C@@H](C(=O)O)NC(=O)[C@H](CCc2ccccc2)NC(=O)[C@@H](Cc2ccc(-c3ccccc3)cc2)NC(=O)[C@H](CCc2ccccc2)N1 [Compound 513],< 10 µM
3,CC(C)(C)Oc1ccc(C[C@@H]2NC(=O)COc3ccc(cc3)C[C@@H](C(=O)O)NC(=O)[C@H](CCc3ccccc3)NC(=O)[C@@H](Cc3ccc(-c4ccccc4)cc3)NC2=O)cc1 [Compound 514],< 10 µM
4,CC(C)(C)c1ccc(C[C@@H]2NC(=O)COc3ccc(cc3)C[C@@H](C(=O)O)NC(=O)[C@H](CCc3ccccc3)NC(=O)[C@@H](Cc3ccc(-c4ccccc4)cc3)NC2=O)cc1 [Compound 515],10 to 30 µM
5,CC(C)(C)OC(=O)NCCCC(=O)N[C@H]1CC(=O)Nc2ccc(cc2)C[C@@H](C(=O)O)NC(=O)[C@@H](Cc2ccccc2)NC(=O)[C@H](Cc2ccc(-c3ccccc3)cc2)NC(=O)[C@@H](Cc2cccs2)NC1=O [Compound 516] ({Boc-GABA}-D[d2Thi][Bip][dF][Phe(4-NH2)]-OH; lactam 1-5),30 to 100 µM
6,O=C1COc2ccc(cc2)C[C@@H](C(=O)O)NC(=O)[C@@H](CCc2ccccc2)NC(=O)[C@H](Cc2ccc(-c3ccccc3)cc2)NC(=O)C(c2ccc(Br)cc2)N1 (stereo partly drawn) [Compound 517],10 to 30 µM
7,O=C1COc2ccc(cc2)C[C@@H](C(=O)O)NC(=O)[C@@H](CCc2ccccc2)NC(=O)[C@H](Cc2ccc(-c3ccccc3)cc2)NC(=O)[C@@H](Cc2ccc(-c3ccncc3)cc2)N1 [Compound 518],< 10 µM
8,O=C1COc2ccc(cc2)C[C@@H](C(=O)O)NC(=O)[C@@H](CCc2ccccc2)NC(=O)[C@H](Cc2ccc(-c3ccccc3)cc2)NC(=O)[C@@H](Cc2ccc(F)cc2)N1 [Compound 519],10 to 30 µM
9,O=C1COc2ccc(cc2)C[C@@H](C(=O)O)NC(=O)[C@@H](CCc2ccccc2)NC(=O)[C@H](Cc2ccc(-c3ccccc3)cc2)NC(=O)[C@@H](Cc2cccc(C(F)(F)F)c2)N1 [Compound 520],< 10 µM
10,O=C1COc2ccc(cc2)C[C@@H](C(=O)O)NC(=O)[C@@H](CCc2ccccc2)NC(=O)[C@H](Cc2ccc(-c3ccccc3)cc2)NC(=O)[C@@H](Cc2ccc(O)cc2)N1 [Compound 521],> 100 µM
11,COc1ccc(C[C@H]2NC(=O)COc3ccc(cc3)C[C@@H](C(=O)O)NC(=O)[C@@H](CCc3ccccc3)NC(=O)[C@H](Cc3ccc(-c4ccccc4)cc3)NC2=O)cc1 [Compound 522],> 100 µM
12,O=C1COc2ccc(cc2)C[C@@H](C(=O)O)NC(=O)[C@@H](CCc2ccccc2)NC(=O)[C@H](Cc2ccc(-c3ccccc3)cc2)NC(=O)[C@@H](Cc2ccncc2)N1 [Compound 523],> 100 µM
13,O=C1COc2ccc(cc2)C[C@@H](C(=O)O)NC(=O)[C@@H](CCc2ccccc2)NC(=O)[C@H](Cc2ccc(-c3ccccc3)cc2)NC(=O)[C@@H](Cc2ccc(F)c(F)c2)N1 [Compound 524],10 to 30 µM
14,O=C1COc2ccc(cc2)C[C@@H](C(=O)O)NC(=O)[C@@H](CCc2ccccc2)NC(=O)C(c2ccc(Br)cc2)NC(=O)[C@@H](Cc2cccs2)N1 (stereo partly drawn) [Compound 525],< 10 µM
15,O=C1COc2ccc(cc2)C[C@@H](C(=O)O)NC(=O)[C@@H](CCc2ccccc2)NC(=O)[C@H](Cc2ccc(-c3ccc(C(=O)OCc4ccccc4)cc3)cc2)NC(=O)[C@@H](Cc2cccs2)N1 [Compound 526],> 100 µM
16,O=C1COc2ccc(cc2)C[C@@H](C(=O)O)NC(=O)[C@@H](CCc2ccccc2)NC(=O)[C@H](Cc2ccc(F)cc2)NC(=O)[C@@H](Cc2cccs2)N1 [Compound 527],> 100 µM
17,CC(=O)Nc1ccc(C[C@H](NC(=O)[C@@H]2Cc3ccc(cc3)NC(=O)CCC(=O)N[C@H](CCc3ccccc3)C(=O)N[C@@H](Cc3ccc(-c4ccccc4)cc3)C(=O)N[C@H](Cc3ccccc3)C(=O)N2)C(=O)O)cc1 [Compound 528] ([d(hPhe)][Bip][dF][Phe(4-NH2)][Phe(4-NH2)](Ac)-OH; linker N-4 via Suc),< 10 µM
18,NCCCC(=O)N[C@H]1CC(=O)Nc2ccc(cc2)C[C@@H](C(=O)N[C@@H](Cc2ccccc2)C(=O)O)NC(=O)[C@@H](Cc2ccccc2)NC(=O)[C@H](Cc2ccc(-c3ccccc3)cc2)NC(=O)[C@@H](Cc2cccs2)NC1=O [Compound 529] (H-[GABA]D[d2Thi][Bip][dF][Phe(4-NH2)]F-OH; lactam 2-6),> 100 µM
19,O=C1COc2ccc(cc2)C[C@@H](C(=O)O)NC(=O)[C@@H](Cc2ccc(-c3ccccc3)cc2)NC(=O)[C@H](Cc2ccc(-c3ccccc3)cc2)NC(=O)[C@@H](Cc2cccs2)N1 [Compound 530],> 100 µM
20,O=C1COc2ccc(cc2)C[C@@H](C(=O)O)NC(=O)[C@@H](Cc2ccc(C(F)(F)F)cc2)NC(=O)[C@H](Cc2ccc(-c3ccccc3)cc2)NC(=O)[C@@H](Cc2cccs2)N1 [Compound 531],> 100 µM
21,O=C1COc2ccc(cc2)C[C@@H](C(=O)O)NC(=O)[C@@H](Cc2ccc(F)cc2)NC(=O)[C@H](Cc2ccc(-c3ccccc3)cc2)NC(=O)[C@@H](Cc2cccs2)N1 [Compound 532],> 100 µM

row,SMILES,IC50
1,O=C1COc2ccc(cc2)C[C@@H](C(=O)O)NC(=O)[C@@H](Cc2cccc(C(F)(F)F)c2)NC(=O)[C@H](Cc2ccc(-c3ccccc3)cc2)NC(=O)[C@@H](Cc2cccs2)N1 [Compound 533],> 100 µM
2,O=C1COc2ccc(cc2)C[C@@H](C(=O)O)NC(=O)[C@@H](Cc2ccc(O)cc2)NC(=O)[C@H](Cc2ccc(-c3ccccc3)cc2)NC(=O)[C@@H](Cc2cccs2)N1 [Compound 534],> 100 µM
3,COc1ccc(C[C@H]2NC(=O)[C@H](Cc3ccc(-c4ccccc4)cc3)NC(=O)[C@@H](Cc3cccs3)NC(=O)COc3ccc(cc3)C[C@@H](C(=O)O)NC2=O)cc1 [Compound 535],> 100 µM
4,O=C1COc2ccc(cc2)C[C@@H](C(=O)O)NC(=O)[C@@H](Cc2ccncc2)NC(=O)[C@H](Cc2ccc(-c3ccccc3)cc2)NC(=O)[C@@H](Cc2cccs2)N1 [Compound 536],< 10 µM
5,O=C1COc2ccc(cc2)C[C@@H](C(=O)O)NC(=O)[C@@H](C/C=C/c2ccccc2)NC(=O)[C@H](Cc2ccc(-c3ccccc3)cc2)NC(=O)[C@@H](Cc2cccs2)N1 [Compound 537],> 100 µM
6,O=C1COc2ccc(cc2)C[C@@H](C(=O)O)NC(=O)[C@@H](Cc2cccs2)NC(=O)[C@H](Cc2ccc(-c3ccccc3)cc2)NC(=O)[C@@H](Cc2cccs2)N1 [Compound 538],> 100 µM
7,O=C1COc2ccc(cc2)C[C@@H](C(=O)O)NC(=O)[C@@H](CCc2ccccc2)NC(=O)[C@H](Cc2ccc(Br)cc2)NC(=O)[C@@H](Cc2cccs2)N1 [Compound 539],> 100 µM
8,COc1ccc(C[C@@H]2NC(=O)[C@@H](Cc3cccs3)NC(=O)COc3ccc(cc3)C[C@@H](C(=O)O)NC(=O)[C@@H](CCc3ccccc3)NC2=O)cc1OC [Compound 540],> 100 µM
9,O=C1COc2ccc(cc2)C[C@@H](C(=O)O)NC(=O)[C@@H](CCc2ccccc2)NC(=O)[C@H](Cc2ccc([N+](=O)[O-])cc2)NC(=O)[C@@H](Cc2cccs2)N1 [Compound 541],> 100 µM
10,O=C1CCC(=O)N[C@H](CCc2ccccc2)C(=O)N[C@@H](Cc2ccc(-c3ccccc3)cc2)C(=O)N[C@H](Cc2ccccc2)C(=O)N[C@H](C(=O)N[C@@H](Cc2ccccc2)C(=O)NCS(=O)(=O)O)Cc2ccc(cc2)N1 [Compound 542] ([d(hPhe)][Bip][dF][Phe(4-NH2)]F-NHCH2SO3H; linker N-4 via Suc),< 10 µM
11,O=C1CCCc2cn(nn2)C[C@@H](C(=O)O)NC(=O)[C@@H](Cc2ccccc2)NC(=O)[C@H](Cc2ccc(C(F)(F)F)cc2)NC(=O)[C@@H](CCc2ccccc2)N1 [Compound 543],> 100 µM
12,O=C1CCCCc2cn(nn2)C[C@@H](C(=O)O)NC(=O)[C@@H](CCc2ccccc2)NC(=O)[C@H](Cc2ccc(-c3ccccc3)cc2)NC(=O)[C@@H](Cc2cccs2)N1 [Compound 544],< 10 µM
13,O=C1CCC(=O)N[C@H](Cc2cccs2)C(=O)N[C@@H](Cc2ccc(-c3ccccc3)cc2)C(=O)N[C@H](Cc2ccccc2)C(=O)N[C@H](C(=O)O)Cc2ccc(cn2)N1 [Compound 545],10 to 30 µM
14,O=C1CCC(=O)N[C@H](CCc2ccccc2)C(=O)N[C@@H](Cc2ccc(-c3ccccc3)cc2)C(=O)N[C@H](Cc2ccccc2)C(=O)N[C@H](C(=O)O)Cc2ccc(cn2)N1 [Compound 546],< 10 µM
15,O=C1CCC(=O)N[C@H](Cc2cccs2)C(=O)N[C@@H](Cc2ccc(-c3ccccc3)cc2)C(=O)N[C@H](CCc2ccccc2)C(=O)N[C@H](C(=O)O)Cc2ccc(cn2)N1 [Compound 547],< 10 µM
16,O=C1CCC(=O)N[C@H](CCc2ccccc2)C(=O)N[C@@H](Cc2ccc(C(F)(F)F)cc2)C(=O)N[C@H](Cc2ccccc2)C(=O)N[C@H](C(=O)O)Cc2ccc(cn2)N1 [Compound 548],30 to 100 µM
17,O=C1CCC(=O)N[C@H](Cc2cccs2)C(=O)N[C@@H](Cc2ccc(-c3ccccc3)cc2)C(=O)N[C@H](Cc2ccccc2)C(=O)Nc2ccc(cc2)C[C@@H](C(=O)O)N1 [Compound 549],> 100 µM
18,O=C1CCC(=O)N[C@H](CCc2ccccc2)C(=O)N[C@@H](Cc2ccc(-c3ccccc3)cc2)C(=O)N[C@H](Cc2ccccc2)C(=O)Nc2ccc(cc2)C[C@@H](C(=O)O)N1 [Compound 550],30 to 100 µM
19,O=C1CCC(=O)N[C@H](Cc2cccs2)C(=O)N[C@@H](Cc2ccc(-c3ccccc3)cc2)C(=O)N[C@H](CCc2ccccc2)C(=O)Nc2ccc(cc2)C[C@@H](C(=O)O)N1 [Compound 551],30 to 100 µM
20,O=C1CCC(=O)N[C@H](CCc2ccccc2)C(=O)N[C@@H](Cc2ccc(C(F)(F)F)cc2)C(=O)N[C@H](Cc2ccccc2)C(=O)Nc2ccc(cc2)C[C@@H](C(=O)O)N1 [Compound 552],10 to 30 µM
